Tested on: HeLa cells
Assay: CCK-8 cell viability after light irradiation (dose-dependent PDT effect)
Assay type: cell-based, human
Settings: 660 nm LED 30 mW cm−2 for 10 minutes
Protocol: In order to determine viability of cells treated with FA-MnO2, HeLa cells (1×10^4 cells/well) were prepared in three (3) 96-well plates for 24 hours, and cultured with FA-MnO2 at different concentrations as well as a complete medium. After incubation for 12 hours, the cells were gently washed with 1×PBS and CCK-8 analysis solution as well as a serum-free medium were added thereto for one hour, followed by measuring absorbance at wavelengths of 450 nm and 670 nm using a micro-plate reader (Molecular Devices, Inc., USA).
Next, in order to determine quantitative cell viability associated with photodynamic effects of FA-MnO2/ZnPc, HeLa cells (1×10^4 cells/well) were seeded on a 96-well plate, incubated for 24 hours, and then, treated with FA-MnO2/ZnPc and ZnPc at various concentrations. After the incubation for 12 hours, each well was irradiated with 660 nm LED (Mikwang Electronics, Korea) at 30 mW cm^−2 for 10 minutes. After additional incubation in a serum-containing medium for 12 hours, analysis of CCK-8 cell vitality was assessed in the same manner as described above.

`[Zn+2].c1ccc2c(c1)-c1nc-2nc2[n-]c(nc3nc([n-]c4nc(n1)-c1ccccc1-4)-c1ccccc1-3)c1ccccc21` [ZnPc, zinc phthalocyanine] showed an IC50 of 115.1 ± 3.4 µg/mL.

Reference: patent US20210085789A1, “PHARMACEUTICAL COMPOSITION FOR CANCER TREATMENT” (SEOUL NATIONAL UNIVERSITY R&DB FOUNDATION, priority 2017, published 2021)
